Experimental data published in patent publication US9290788B2, “Device for determining or studying the state of stimulation of the natural defences of plants or portions of plants” (Institut National De La Recherche Agronomique, priority 2010, dated 2016).

System: 28 target genes (defense genes) in apple tree leaves
Test: Test 1: relative expression of the 28 defense genes (qPCR, ΔΔCt) in apple tree seedling leaves subjected to NDS treatments and abiotic stresses
Assay type: in vivo, apple tree seedlings (Golden Delicious)
Conditions: for Relative expression of ANS / Relative expression of PAL / Relative expression of PR-1 / Relative expression of PR-2 / Relative expression of PR-4 / Relative expression of PR-5 / Relative expression of PR-8 / Relative expression of PR-14 / Relative expression of PR-15: vs water control
[1] = +H2O2, J2, relative to water control
[2] = +H2O2, J3, relative to water control
[3] = +H2O2 (sprayed 24 hours after treatment), J2
[4] = +H2O2 (sprayed 24 hours after treatment), J3
[5] = −H2O2, J2, relative to water control
[6] = −H2O2, J3, relative to water control

## CC/C=C\CC1C(=O)CCC1CC(=O)OC (stereo not shown) [MeJA, methyl jasmonate]
[1]
  Relative expression ACCO (log base 2): 3.48
  Relative expression APOX (log base 2): 1.87
  Relative expression CAD (log base 2): 0.70
  Relative expression CHS (log base 2): 3.73
  Relative expression CSL (log base 2): 2.26
  Relative expression CalS (log base 2): 0.48
  Relative expression DFR (log base 2): 3.43
  Relative expression EDS1 (log base 2): −0.17
  Relative expression EIN3 (log base 2): 2.54
  Relative expression FPPS (log base 2): −0.07
  Relative expression Far (log base 2): 0.74
  Relative expression GST (log base 2): 0.47
  Relative expression HMGR (log base 2): −0.38
  Relative expression JAR (log base 2): 0.73
  Relative expression LOX2 (log base 2): 1.51
  Relative expression POX (log base 2): 2.84
  Relative expression PPO (log base 2): 0.80
  Relative expression Pect (log base 2): −2.02
  Relative expression WRKY (log base 2): −0.06
[2]
  Relative expression ACCO (log base 2): 2.28
  Relative expression APOX (log base 2): 2.11
  Relative expression CAD (log base 2): 0.35
  Relative expression CHS (log base 2): 1.47
  Relative expression CSL (log base 2): 1.46
  Relative expression CalS (log base 2): 1.48
  Relative expression DFR (log base 2): 1.36
  Relative expression EDS1 (log base 2): 0.98
  Relative expression EIN3 (log base 2): 1.80
  Relative expression FPPS (log base 2): 0.43
  Relative expression Far (log base 2): 0.39
  Relative expression GST (log base 2): 0.87
  Relative expression HMGR (log base 2): 0.60
  Relative expression JAR (log base 2): 1.61
  Relative expression LOX2 (log base 2): 1.99
  Relative expression POX (log base 2): 4.29
  Relative expression PPO (log base 2): 1.23
  Relative expression Pect (log base 2): 2.16
  Relative expression WRKY (log base 2): 3.46
[3]
  Relative expression of ANS: 3.29 log2
  Relative expression of PAL: 3.36 log2
  Relative expression of PR-1: 0.40 log2
  Relative expression of PR-2: 3.89 log2
  Relative expression of PR-4: 1.25 log2
  Relative expression of PR-5: −2.09 log2
  Relative expression of PR-8: 1.41 log2
  Relative expression of PR-14: −0.64 log2
  Relative expression of PR-15: 3.20 log2
[4]
  Relative expression of ANS: 1.44 log2
  Relative expression of PAL: 2.01 log2
  Relative expression of PR-1: 2.84 log2
  Relative expression of PR-2: 0.68 log2
  Relative expression of PR-4: 2.84 log2
  Relative expression of PR-5: −1.22 log2
  Relative expression of PR-8: 1.51 log2
  Relative expression of PR-14: 3.68 log2
  Relative expression of PR-15: 2.77 log2
−H2O2, J2
  Relative expression of ANS: 2.31 log2
  Relative expression of PAL: 3.17 log2
  Relative expression of PR-1: 1.56 log2
  Relative expression of PR-2: 4.03 log2
  Relative expression of PR-4: 2.68 log2
  Relative expression of PR-5: −0.59 log2
  Relative expression of PR-8: 1.85 log2
  Relative expression of PR-14: 3.45 log2
  Relative expression of PR-15: −0.19 log2
−H2O2, J3
  Relative expression of ANS: 1.58 log2
  Relative expression of PAL: 1.66 log2
  Relative expression of PR-1: 2.35 log2
  Relative expression of PR-2: 3.69 log2
  Relative expression of PR-4: 2.63 log2
  Relative expression of PR-5: 1.49 log2
  Relative expression of PR-8: 1.00 log2
  Relative expression of PR-14: 5.09 log2
  Relative expression of PR-15: 1.21 log2
[5]
  Relative expression ACCO (log base 2): 1.92
  Relative expression APOX (log base 2): −3.00
  Relative expression CAD (log base 2): 1.52
  Relative expression CHS (log base 2): 2.97
  Relative expression CSL (log base 2): 2.29
  Relative expression CalS (log base 2): 0.05
  Relative expression DFR (log base 2): 2.92
  Relative expression EDS1 (log base 2): 1.91
  Relative expression EIN3 (log base 2): 3.82
  Relative expression FPPS (log base 2): 0.00
  Relative expression Far (log base 2): 2.34
  Relative expression GST (log base 2): 1.00
  Relative expression HMGR (log base 2): 1.49
  Relative expression JAR (log base 2): 1.25
  Relative expression LOX2 (log base 2): 1.60
  Relative expression POX (log base 2): 0.66
  Relative expression PPO (log base 2): 1.28
  Relative expression Pect (log base 2): 0.98
  Relative expression WRKY (log base 2): 1.25
[6]
  Relative expression ACCO (log base 2): 1.96
  Relative expression APOX (log base 2): 0.95
  Relative expression CAD (log base 2): 0.01
  Relative expression CHS (log base 2): 1.22
  Relative expression CSL (log base 2): 1.81
  Relative expression CalS (log base 2): 1.14
  Relative expression DFR (log base 2): 1.55
  Relative expression EDS1 (log base 2): 1.22
  Relative expression EIN3 (log base 2): 1.22
  Relative expression FPPS (log base 2): 0.13
  Relative expression Far (log base 2): 1.51
  Relative expression GST (log base 2): −0.15
  Relative expression HMGR (log base 2): 1.16
  Relative expression JAR (log base 2): 0.63
  Relative expression LOX2 (log base 2): 1.45
  Relative expression POX (log base 2): 3.86
  Relative expression PPO (log base 2): 0.78
  Relative expression Pect (log base 2): 3.87
  Relative expression WRKY (log base 2): 0.85
